Where a SMILES comes first, the peptide text is derived from it. [ ]: non-standard residue; d: D form. The star is where a group is joined. Dnp = O=[N+]([O-])c1ccc(*)c([N+](=O)[O-])c1; Mca = COc1ccc2c(CC(=O)*)cc(=O)oc2c1; Nva = CCC[C@H](N)C(=O)O
Columns and labels:
MMP-3 [1] = target: T1, MMP-3 (Homo sapiens, UniProt P08254); assay: Fluorometric hydrolysis of synthetic Mca/Lys(Dnp) substrates by MMP-3; assay type: biochemical; design: made in house; host or cells: native secreted protein purified from culture medium of human rheumatoid synovial cells; details: Edman degradation analysis after 36-72 hour treatment of substrate with MMP
Target sequence in this assay (P08254 100-477): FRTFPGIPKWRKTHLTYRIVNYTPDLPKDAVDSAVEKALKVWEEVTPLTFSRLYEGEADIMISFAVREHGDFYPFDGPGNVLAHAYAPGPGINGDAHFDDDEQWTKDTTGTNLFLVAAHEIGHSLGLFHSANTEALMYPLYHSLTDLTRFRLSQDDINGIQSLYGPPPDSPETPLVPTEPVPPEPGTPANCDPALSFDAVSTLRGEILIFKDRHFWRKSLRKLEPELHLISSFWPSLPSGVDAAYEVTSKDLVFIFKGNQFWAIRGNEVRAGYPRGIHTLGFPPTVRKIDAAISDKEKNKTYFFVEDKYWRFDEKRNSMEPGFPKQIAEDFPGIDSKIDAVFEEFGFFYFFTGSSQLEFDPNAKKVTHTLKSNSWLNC

MMP-3 [2] = target: T1, MMP-3; assay: as above; assay type: biochemical; design: made in house; host or cells: native secreted protein purified from culture medium of human rheumatoid synovial cells; details: for kcat /Km: pH 7.5
Text: (§1) All MMPs were purified in zymogen form. ProMMP-1 (Suzuki et al., Biochem., 29, 10261 (1990)), proMMP-2 (Okada et al., Eur. J. Biochem., 194, 721 (1990)), and proMMP-3 (Ito et al., Arch. Biochem. Biophys., 267, 211 (1988)) were purified from the culture medium of human rheumatoid synovial cells stimulated with rabbit macrophage-conditioned medium. ProMMP-9 was purified from the culture medium of HT-1080 cells as described in Morodomi et al., Biochem. J., 285, 603 (1992). ProMMP-2 and proMMP-9 were activated by reacting with 1 mM 4-aminophenylmercuric acetate at 37° C. for 45 minutes and 32 hours, respectively. ProMMP-1 was activated by reacting with 1 mM 4-aminophenylmercuric acetate and an equimolar amount of MMP-3 at 37° C. for 6 hours. After activation, MMP-3 was completely removed from MMP-1 by affinity chromatography using an anti-MMP-3 IgG Affi-Gel 10 column. The resin, Affi-Gel 10 (Biorad, Emoryville, Calif.), was coupled to anti-MMP-3 IgG (Okada et al., Annals of Rheumat. Dis., 48, 645 (1989)) per the manufacturer's protocol. Pro-MMP-3 was activated by reacting with 5 μg/mL chymotrypsin at 37° C. for 2 hours. Chymotrypsin was inactivated with 2 mM diisopropylfluorophosphate. The amounts of active MMP-1, MMP-2, and MMP-3 were determined by titration with tissue inhibitor of metalloproteinase-1(TIMP1) over a concentration range of 0.1-3 μg/mL, while the amount of active MMP-9 was determined by titration with TIMP-2 (0.1-3 μg/mL). TIMP-1 was isolated from the medium of HT-1080 cells as described in Morodomi et al., Biochem J., 285, 603 (1992).
(§2) Substrates were prepared as 10 mM stock solutions in dimethylsulfoxide (DMSO). Fluorescent assays were performed at λex =325 nm and λem =393 nm, which should encounter no interference from Trp residues, using a Hitachi fluorescence spectrophotometer F-3010. Initial total hydrolysis assays were run at a substrate concentration of […] to avoid filtering effects. The change in fluorescence at this concentration was 110 based on total hydrolysis of 1 μM substrate. A typical assay was carried out by incubating 100 μL of various concentrations of a substrate with 10 μL of an enzyme solution (2-20 nM) in 50 mM Tris-HCl, pH 7.5, 0.15M NaCl, 10 mM CaCl2, 0.05% Brij 35, 0.02% NaN3. The reaction was stopped by addition of 900 μl of 3% (v/v) glacial acetic acid. MMP-3 activity at pH 6.0 was measured in 50 mM sodium acetate buffer, pH 6.0, instead of Tris-HCl buffer. The amount of substrate hydrolysis was calculated based on the fluorescence values of the Mca-Arg-Pro-Lys-Pro-Gln standard solution after substraction of the reaction blank value (stopping solution added before the enzyme). Individual kinetic parameters (kcat and KM) were determined over a substrate concentration range of 2.5-75 μM and calculated by double reciprocal plots.
Target sequence in this assay (P08254 100-477): as above

MMP-2 [3] = target: T2, MMP-2 (Homo sapiens, UniProt P08253); assay: Fluorometric hydrolysis of synthetic Mca/Lys(Dnp) substrates by MMP-2; assay type: biochemical; design: made in house; host or cells: native secreted protein purified from culture medium of human rheumatoid synovial cells; details: for site of hydrolysis by MMP-2: Edman degradation analysis after 36-72 hour treatment of substrate with MMP
T2 sequence (P08253 110-660): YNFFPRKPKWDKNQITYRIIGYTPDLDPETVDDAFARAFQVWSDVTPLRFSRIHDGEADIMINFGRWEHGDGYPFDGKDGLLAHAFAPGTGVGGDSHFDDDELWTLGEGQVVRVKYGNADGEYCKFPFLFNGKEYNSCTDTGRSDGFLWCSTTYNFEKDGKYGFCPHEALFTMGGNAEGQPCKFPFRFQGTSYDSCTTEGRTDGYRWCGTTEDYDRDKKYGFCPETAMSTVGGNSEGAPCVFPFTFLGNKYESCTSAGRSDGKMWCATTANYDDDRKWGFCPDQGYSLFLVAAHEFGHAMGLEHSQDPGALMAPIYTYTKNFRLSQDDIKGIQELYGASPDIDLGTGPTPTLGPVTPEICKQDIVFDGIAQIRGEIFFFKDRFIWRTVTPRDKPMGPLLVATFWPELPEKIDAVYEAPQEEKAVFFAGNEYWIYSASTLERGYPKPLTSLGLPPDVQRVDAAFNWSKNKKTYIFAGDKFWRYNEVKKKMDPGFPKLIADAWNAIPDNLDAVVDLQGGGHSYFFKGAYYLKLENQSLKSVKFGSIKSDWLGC
Text: as §1, §2

MMP-1 [4] = target: T3, MMP-1 (Homo sapiens, UniProt P03956); assay: Fluorometric hydrolysis of synthetic Mca/Lys(Dnp) substrates by MMP-1; assay type: biochemical; design: made in house; host or cells: native secreted protein purified from culture medium of human rheumatoid synovial cells; details: for site of hydrolysis by MMP-1: Edman degradation analysis after 36-72 hour treatment of substrate with MMP
T3 sequence (P03956 100-469): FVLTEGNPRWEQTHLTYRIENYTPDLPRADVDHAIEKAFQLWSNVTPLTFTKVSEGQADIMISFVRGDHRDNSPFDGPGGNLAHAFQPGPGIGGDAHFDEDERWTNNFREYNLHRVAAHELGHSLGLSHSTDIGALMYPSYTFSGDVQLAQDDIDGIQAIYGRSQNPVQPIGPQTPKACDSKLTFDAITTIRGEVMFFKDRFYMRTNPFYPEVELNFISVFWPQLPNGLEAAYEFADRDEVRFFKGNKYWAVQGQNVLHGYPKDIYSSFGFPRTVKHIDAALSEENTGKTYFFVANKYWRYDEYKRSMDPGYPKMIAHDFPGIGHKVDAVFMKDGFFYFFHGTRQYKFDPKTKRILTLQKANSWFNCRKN
Text: as §1, §2

MMP-9 [5] = target: T4, MMP-9 (Homo sapiens, UniProt P14780); assay: Fluorometric hydrolysis of synthetic Mca/Lys(Dnp) substrates by MMP-9; assay type: biochemical; design: made in house; host or cells: native secreted protein purified from culture medium of HT-1080 cells
Text: as §1, §2
Target sequence in this assay (P14780 107-707 limits assumed): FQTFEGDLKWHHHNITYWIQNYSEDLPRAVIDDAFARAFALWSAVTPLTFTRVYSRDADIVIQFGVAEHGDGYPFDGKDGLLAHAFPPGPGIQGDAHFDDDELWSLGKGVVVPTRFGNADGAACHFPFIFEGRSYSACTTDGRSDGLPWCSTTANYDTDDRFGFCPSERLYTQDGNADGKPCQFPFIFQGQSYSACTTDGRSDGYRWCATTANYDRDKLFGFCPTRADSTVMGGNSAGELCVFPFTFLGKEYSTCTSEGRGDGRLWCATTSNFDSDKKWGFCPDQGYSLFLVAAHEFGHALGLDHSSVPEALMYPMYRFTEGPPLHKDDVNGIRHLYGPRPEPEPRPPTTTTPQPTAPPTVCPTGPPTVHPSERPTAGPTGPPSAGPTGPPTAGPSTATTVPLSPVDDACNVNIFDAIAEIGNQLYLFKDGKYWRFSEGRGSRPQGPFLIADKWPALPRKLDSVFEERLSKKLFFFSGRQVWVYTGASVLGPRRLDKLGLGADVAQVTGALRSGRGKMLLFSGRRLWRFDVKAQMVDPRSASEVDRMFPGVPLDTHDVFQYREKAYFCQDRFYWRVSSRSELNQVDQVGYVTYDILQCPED

Solubility of substrate = assay type: physicochemical; details: 2.5% DMSO in water; read-out: soluble up to a concentration
MMP-9 [6] = target: T4, MMP-9; assay: Fluorometric hydrolysis of synthetic Mca/Lys(Dnp) substrates by MMP-9; assay type: biochemical; design: made in house; host or cells: native secreted protein purified from culture medium of HT-1080 cells; details: Edman degradation analysis after 36-72 hour treatment of substrate with MMP
Target sequence in this assay (P14780 107-707 limits assumed): as above

MMP-9 [7] = target: T4, MMP-9; details: background, literature; cited from earlier work
Target sequence in this assay (P14780 94-707, species assumed): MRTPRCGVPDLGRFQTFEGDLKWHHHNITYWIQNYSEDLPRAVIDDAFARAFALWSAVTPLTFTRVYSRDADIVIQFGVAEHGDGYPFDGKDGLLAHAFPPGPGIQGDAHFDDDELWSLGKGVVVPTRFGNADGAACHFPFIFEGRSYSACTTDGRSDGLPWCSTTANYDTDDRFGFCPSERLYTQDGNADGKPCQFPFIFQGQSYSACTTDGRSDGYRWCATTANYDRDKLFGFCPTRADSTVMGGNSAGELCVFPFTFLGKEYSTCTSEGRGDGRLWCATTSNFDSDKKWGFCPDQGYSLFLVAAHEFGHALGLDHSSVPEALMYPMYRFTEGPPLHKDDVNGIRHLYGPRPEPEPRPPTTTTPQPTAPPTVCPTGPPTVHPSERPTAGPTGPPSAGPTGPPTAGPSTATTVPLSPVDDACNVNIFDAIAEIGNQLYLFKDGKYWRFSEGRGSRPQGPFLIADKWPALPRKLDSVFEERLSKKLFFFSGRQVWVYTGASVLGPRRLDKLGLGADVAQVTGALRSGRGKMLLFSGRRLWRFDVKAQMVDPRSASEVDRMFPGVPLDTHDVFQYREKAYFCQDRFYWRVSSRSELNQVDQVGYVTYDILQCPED

MMP-1 [8] = target: T3, MMP-1; details: background, literature; cited from earlier work
MMP-3 [9] = target: T1, MMP-3; details: cited from earlier work; for kcat Km: MMP-3, assay at 37° C.; for hydrolyzed by MMP-3: background, literature
Target sequence in this assay (P08254 100-477, species assumed): as the sequence (P08254 100-477) above

MMP-7 = target: T5, MMP-7 (Homo sapiens, UniProt P09237); details: background, literature; cited from earlier work
T5 sequence (P09237 95-267): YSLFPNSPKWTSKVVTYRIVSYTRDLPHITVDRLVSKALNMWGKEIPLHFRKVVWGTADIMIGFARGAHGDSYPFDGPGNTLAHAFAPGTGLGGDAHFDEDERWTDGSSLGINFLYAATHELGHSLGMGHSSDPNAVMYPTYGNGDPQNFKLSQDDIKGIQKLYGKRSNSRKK

MMP-2 [10] = target: T2, MMP-2; details: background, literature; cited from earlier work

| Compound | site of hydrolysis by MMP-3 (MMP-3 [1]) | kcat /Km (MMP-3 [2]; MMP-3, 37° C.) | hydrolysis by MMP-9 (MMP-9 [5]) | site of hydrolysis by MMP-9 (MMP-9 [6]) | site of hydrolysis by MMP-2 (MMP-2 [3]) | site of hydrolysis by MMP-1 (MMP-1 [4]) | hydrolyzed by MMP-1 (MMP-1 [8]) | kcat Km (MMP-3 [9]) | hydrolyzed by MMP-3 (MMP-3 [9]) | hydrolyzed by MMP-7 (MMP-7) | hydrolyzed by MMP-2 (MMP-2 [10]) | also measured |
| --- | --- | --- | --- | --- | --- | --- | --- | --- | --- | --- | --- | --- |
| CCC[C@H](NC(=O)[C@H](CCC(=O)O)NC(=O)[C@@H](NC(=O)[C@@H]1CCCN1C(=O)[C@H](CCCCN)NC(=O)[C@@H]1CCCN1C(=O)[C@H](CCCNC(=N)N)NC(=O)Cc1cc(=O)oc2cc(OC)ccc12)C(C)C)C(=O)N[C@@H](Cc1c[nH]c2ccccc12)C(=O)N[C@@H](CCCNC(=N)N)C(=O)N[C@@H](CCCCNc1ccc([N+](=O)[O-])cc1[N+](=O)[O-])C(N)=O [NFF-3, Mca-Arg-Pro-Lys-Pro-Val-Glu-Nva-Trp-Arg-Lys(Dnp)-NH2] (Mca-RPKPVE[Nva]WRK(Dnp)-NH2) | Glu--Nva bond | 218,000 S^-1 M^-1 | very slowly hydrolyzed | multiple sites |  |  |  |  |  |  |  | kcat /Km (MMP-3 [2]; MMP-3, 25° C.): 65,700 S^-1 M^-1; hydrolysis by MMP-3 (MMP-3 [2]; comparison of synthetic substrates): most rapidly hydrolyzed fluorogenic MMP-3 substrate yet described; hydrolyzed faster than NFF-2 by MMP-3 (MMP-3 [2]; rate relative to NFF-2): 3.7 times; hydrolysis by MMP-2 (MMP-2 [3]): not hydrolyzed; hydrolysis by MMP-1 (MMP-1 [4]): not hydrolyzed; solubility (Solubility of substrate): ≥ 250 µM |
| COc1ccc2c(CC(=O)N3CCC[C@H]3C(=O)N[C@@H](CCCCN)C(=O)N3CCC[C@H]3C(=O)N[C@@H](CCC(N)=O)C(=O)N[C@@H](CCC(N)=O)C(=O)N[C@@H](Cc3ccccc3)C(=O)N[C@@H](Cc3ccccc3)C(=O)NCC(=O)N[C@@H](CC(C)C)C(=O)N[C@@H](CCCCNc3ccc([N+](=O)[O-])cc3[N+](=O)[O-])C(=O)NCC(=O)O)cc(=O)oc2c1 [NFF-1, Mca-Pro-Lys-Pro-Gln-Gln-Phe-Phe-Gly-Leu-Lys(Dnp)-Gly] (Mca-PKPQQFFGLK(Dnp)G-OH) | Gln--Phe bond | 10,900 S^-1 M^-1 |  | Gly--Leu bond | Gln--Phe bond | Gln--Phe and Gly--Leu bonds |  |  |  |  |  | hydrolysis by MMP-3 compared with MMP-2 (MMP-3 [2]; MMP-3 and MMP-2): equally well; ratio of hydrolysis at the Gln-Phe and Gly-Leu bonds by MMP-1 (MMP-1 [4]; Edman degradation analysis after 36-72 hour treatment): 3.2; less activity of MMP-1 than MMP-3 towards the substrate (MMP-1 [4]; MMP-1 compared with MMP-3): 75%; less activity of MMP-9 than MMP-3 towards the substrate (MMP-9 [5]; MMP-9 compared with MMP-3): 60% |
| Dnp-Pro-Cha-Gly-Cys(CH3)-His-Ala-Lys(Nma)-NH2 |  |  |  |  |  |  | hydrolyzed |  |  |  |  | hydrolyzed by MMP-9 (MMP-9 [7]): hydrolyzed |
| Dnp-Pro-Leu-Gly-Leu-Trp-Ala-D-Arg-NH2 (Dnp-PLGLWA[dR]-NH2; SMILES CC(C)C[C@H](NC(=O)CNC(=O)[C@H](CC(C)C)NC(=O)[C@@H]1CCCN1c1ccc([N+](=O)[O-])cc1[N+](=O)[O-])C(=O)N[C@@H](Cc1c[nH]c2ccccc12)C(=O)N[C@@H](C)C(=O)N[C@H](CCCNC(=N)N)C(N)=O) [literature fluorogenic MMP substrate] |  |  |  |  |  |  | hydrolyzed | 2,200 S^-1 M^-1 | hydrolyzed | hydrolyzed | hydrolyzed |  |
| Mca--Pro--Leu--Gly"--"Leu--Dpa--Ala--Arg--NH2 |  |  |  |  |  |  | hydrolyzed | 23,000 S^-1 M^-1 | hydrolyzed | hydrolyzed | hydrolyzed |  |
| CCC[C@H](NC(=O)[C@H](C)NC(=O)[C@H](Cc1ccc(O)cc1)NC(=O)[C@@H]1CCCN1C(=O)[C@H](CCCCN)NC(=O)[C@@H]1CCCN1C(=O)[C@H](CCCNC(=N)N)NC(=O)Cc1cc(=O)oc2cc(OC)ccc12)C(=O)N[C@@H](Cc1c[nH]c2ccccc12)C(=O)N[C@@H](CCSC)C(=O)N[C@@H](CCCCNc1ccc([N+](=O)[O-])cc1[N+](=O)[O-])C(N)=O [NFF-2, Mca-Arg-Pro-Lys-Pro-Tyr-Ala-Nva-Trp-Met-Lys(Dnp)-NH2] (Mca-RPKPYA[Nva]WMK(Dnp)-NH2) | Ala--Nva bond | 59,400 S^-1 M^-1 | most rapidly hydrolyzed substrate for MMP-9 reported to date | Ala--Nva bond | Ala--Nva bond | Ala--Nva bond |  |  |  |  |  | hydrolyzed more rapidly than NFF-1 by MMP-3 (MMP-3 [2]; rate relative to NFF-1): 6 times; hydrolyzed more rapidly by MMP-3 than MMP-1 (MMP-3 [2]; selectivity MMP-3 over MMP-1): 60 times; hydrolyzed more rapidly than NFF-1 by MMP-2 (MMP-2 [3]; rate relative to NFF-1): 5 times; MMP-1 activity reduced compared to NFF-1 (MMP-1 [4]; relative to NFF-1): ~ 50%; hydrolyzed more rapidly than NFF-1 by MMP-9 (MMP-9 [5]; rate relative to NFF-1): 14 times |

Reference: patent US5770691A, “Discriminatory substrates for MMP hydrolysis” (Regents of the University of Minnesota, priority 1995, dated 1998)
